In brackets after ≈: the same amount, converted by molar mass.
Legend:
Moraxella catarrhalis [1] = assay: Antibacterial activity against Moraxella catarrhalis BCA 19-5 assessed as inhibition of bacterial growth incubated for 24 hrs by CLSI based broth microdilution method; assay type: functional; settings: Moraxella catarrhalis, BCA 19-5, 24 h, read-out: MIC
[2] = system: Staphylococcus epidermidis; assay: Antibacterial activity against erythromycin-resistant Staphylococcus epidermidis 19-9 assessed as inhibition of visible bacterial growth incubated for 18 hrs by broth microdilution method; assay type: functional
Haemophilus influenzae [3] = assay: Antibacterial activity against Haemophilus influenzae HIN 19-18 assessed as inhibition of bacterial growth incubated for 20 to 24 hrs by CLSI based broth microdilution method; assay type: functional; settings: HIN 19-18, time 20-24 hrs
Streptococcus pneumoniae [4] = assay: Antibacterial activity against erythromycin-resistant Streptococcus pneumoniae SPN19-8 assessed as inhibition of visible bacterial growth incubated for 18 hrs by broth microdilution method; assay type: functional
Haemophilus influenzae [5] = assay: Antibacterial activity against Haemophilus influenzae HIN 20-18 assessed as inhibition of bacterial growth incubated for 20 to 24 hrs by CLSI based broth microdilution method; assay type: functional; settings: time 20-24 hrs
[6] = system: Staphylococcus epidermidis; assay: Antibacterial activity against erythromycin-resistant Staphylococcus epidermidis 19-8 assessed as inhibition of visible bacterial growth incubated for 18 hrs by broth microdilution method; assay type: functional
Haemophilus influenzae [7] = assay: Antibacterial activity against Haemophilus influenzae HIN 19-15 assessed as inhibition of bacterial growth incubated for 20 to 24 hrs by CLSI based broth microdilution method; assay type: functional; settings: time 20-24 hrs
Streptococcus pneumoniae [8] = assay: Antibacterial activity against erythromycin-resistant Streptococcus pneumoniae SPN19-13 assessed as inhibition of visible bacterial growth incubated for 18 hrs by broth microdilution method; assay type: functional
[9] = system: Staphylococcus epidermidis; assay: Antibacterial activity against erythromycin-resistant Staphylococcus epidermidis 19-5 assessed as inhibition of visible bacterial growth incubated for 18 hrs by broth microdilution method; assay type: functional
Moraxella catarrhalis [10] = assay: Antibacterial activity against Moraxella catarrhalis BCA 19-31 assessed as inhibition of bacterial growth incubated for 24 hrs by CLSI based broth microdilution method; assay type: functional; settings: BCA 19-31, 24 h
[11] = Cytotoxicity against mouse AML12 cells assessed as reduction in cell viability incubated for 48 hrs by MTT assay; assay type: toxicity, cell-based
Streptococcus pyogenes = assay: Antibacterial activity against erythromycin-resistant Streptococcus pyogenes ATCC 19615 assessed as inhibition of visible bacterial growth incubated for 18 hrs by broth microdilution method; assay type: functional
Moraxella catarrhalis [12] = assay: Antibacterial activity against Moraxella catarrhalis BCA 19-6 assessed as inhibition of bacterial growth incubated for 24 hrs by CLSI based broth microdilution method; assay type: functional; settings: Moraxella catarrhalis, BCA 19-6, 24 h, read-out: MIC
[13] = system: Staphylococcus epidermidis; assay: Antibacterial activity against erythromycin-resistant Staphylococcus epidermidis 19-4 assessed as inhibition of visible bacterial growth incubated for 18 hrs by broth microdilution method; assay type: functional
[14] = system: Staphylococcus epidermidis; assay: Antibacterial activity against erythromycin-resistant Staphylococcus epidermidis 19-6 assessed as inhibition of visible bacterial growth incubated for 18 hrs by broth microdilution method; assay type: functional
[15] = system: Staphylococcus epidermidis; assay: Antibacterial activity against erythromycin-resistant Staphylococcus epidermidis 19-11 assessed as inhibition of visible bacterial growth incubated for 18 hrs by broth microdilution method; assay type: functional
Streptococcus agalactiae [16] = assay: Antibacterial activity against erythromycin-resistant Streptococcus agalactiae 19-9 assessed as inhibition of visible bacterial growth incubated for 18 hrs by broth microdilution method; assay type: functional
Streptococcus pneumoniae [17] = assay: Antibacterial activity against erythromycin-resistant Streptococcus pneumoniae SPN19-14 assessed as inhibition of visible bacterial growth incubated for 18 hrs by broth microdilution method; assay type: functional
Streptococcus agalactiae [18] = assay: Antibacterial activity against erythromycin-resistant Streptococcus agalactiae 19-8 assessed as inhibition of visible bacterial growth incubated for 18 hrs by broth microdilution method; assay type: functional

Row | Structure (SMILES) | MIC (Moraxella catarrhalis [1]) [µg/mL] | MIC [2] [µg/mL] | MIC (Haemophilus influenzae [3]) [µg/mL] | MIC (Streptococcus pneumoniae [4]) [µg/mL] | MIC (Haemophilus influenzae [5]) [µg/mL] | MIC [6] [µg/mL] | MIC (Haemophilus influenzae [7]) [µg/mL] | MIC (Streptococcus pneumoniae [8]) [µg/mL] | MIC [9] [µg/mL] | MIC (Moraxella catarrhalis [10]) [µg/mL] | CC50 at 48 h [11] [µM] | MIC (Streptococcus pyogenes) [µg/mL] | MIC (Moraxella catarrhalis [12]) [µg/mL] | MIC [13] [µg/mL] | MIC [14] [µg/mL] | MIC [15] [µg/mL] | MIC (Streptococcus agalactiae [16]) [µg/mL] | MIC (Streptococcus pneumoniae [17]) [µg/mL] | MIC (Streptococcus agalactiae [18]) [µg/mL]
1 | CC[C@H]1OC(=O)[C@@](C)(F)C(=O)[C@H](C)[C@@H](O[C@@H]2O[C@H](C)C[C@H](N(C)C)[C@H]2O)[C@](C)(OC)C[C@@H](C)C(=O)[C@H](C)[C@H]2N(CCCOC(=O)Nc3ccc(Cl)cc3C)C(=O)O[C@]12C | 0.125 (≈ 0.146 µM) | < 0.03 | 4 (≈ 4.67 µM) | 0.25 (≈ 0.292 µM) | 16 (≈ 18.7 µM) | 0.125 (≈ 0.146 µM) | 8 (≈ 9.34 µM) | 0.125 (≈ 0.146 µM) | < 0.03 | 0.125 (≈ 0.146 µM) | 12.8 | < 0.03 | 0.25 (≈ 0.292 µM) | 0.03 (≈ 0.035 µM) | 0.125 (≈ 0.146 µM) | 0.06 (≈ 0.0701 µM) | 0.5 (≈ 0.584 µM) | 0.125 (≈ 0.146 µM) | 
2 | CC[C@H]1OC(=O)[C@@](C)(F)C(=O)[C@H](C)[C@@H](O[C@@H]2O[C@H](C)C[C@H](N(C)C)[C@H]2O)[C@](C)(OC)C[C@@H](C)C(=O)[C@H](C)[C@H]2N(CCCOC(=O)Nc3ccccc3OC)C(=O)O[C@]12C | 11.1 (≈ 13.2 µM) | 0.25 (≈ 0.298 µM) |  | 0.125 (≈ 0.149 µM) |  | 0.06 (≈ 0.0716 µM) | 8 (≈ 9.55 µM) | 0.125 (≈ 0.149 µM) | 0.06 (≈ 0.0716 µM) | 0.125 (≈ 0.149 µM) | 83.8 | < 0.03 | 0.41 (≈ 0.489 µM) | 0.06 (≈ 0.0716 µM) | 0.125 (≈ 0.149 µM) | 0.125 (≈ 0.149 µM) | 0.5 (≈ 0.597 µM) | 0.125 (≈ 0.149 µM) | < 0.03
3 | CC[C@H]1OC(=O)[C@H](C)C(=O)[C@H](C)[C@@H](O[C@@H]2O[C@H](C)C[C@H](N(C)C)[C@H]2O)[C@](C)(OC)C[C@@H](C)C(=O)[C@H](C)[C@H]2N(CCCOC(=O)Nc3cccc(C)c3)C(=O)O[C@]12C | 0.5 (≈ 0.622 µM) | 1 (≈ 1.24 µM) | 32 (≈ 39.8 µM) | 1 (≈ 1.24 µM) |  | 0.5 (≈ 0.622 µM) | 32 (≈ 39.8 µM) | 1 (≈ 1.24 µM) | 0.5 (≈ 0.622 µM) | 1 (≈ 1.24 µM) | 71.7 | < 0.03 | 0.5 (≈ 0.622 µM) | 2 (≈ 2.49 µM) | 0.5 (≈ 0.622 µM) | 0.5 (≈ 0.622 µM) | 0.5 (≈ 0.622 µM) | 1 (≈ 1.24 µM) | < 0.03
4 | CC[C@H]1OC(=O)[C@@](C)(F)C(=O)[C@H](C)[C@@H](O[C@@H]2O[C@H](C)C[C@H](N(C)C)[C@H]2O)[C@](C)(OC)C[C@@H](C)C(=O)[C@H](C)[C@H]2N(CCCOC(=O)Nc3ccc(SC)cc3)C(=O)O[C@]12C | 0.5 (≈ 0.585 µM) | 0.25 (≈ 0.293 µM) | 8 (≈ 9.37 µM) | 1 (≈ 1.17 µM) |  | 0.125 (≈ 0.146 µM) | 16 (≈ 18.7 µM) | 0.25 (≈ 0.293 µM) | 0.125 (≈ 0.146 µM) | 0.125 (≈ 0.146 µM) | 76.1 | < 0.03 | 0.5 (≈ 0.585 µM) | 0.125 (≈ 0.146 µM) | 0.125 (≈ 0.146 µM) | 0.125 (≈ 0.146 µM) | 16 (≈ 18.7 µM) | 0.25 (≈ 0.293 µM) | 0.03 (≈ 0.0351 µM)
5 | CC[C@H]1OC(=O)[C@@](C)(F)C(=O)[C@H](C)[C@@H](O[C@@H]2O[C@H](C)C[C@H](N(C)C)[C@H]2O)[C@](C)(OC)C[C@@H](C)C(=O)[C@H](C)[C@H]2N(CCCOC(=O)Nc3cccc(Cl)c3)C(=O)O[C@]12C | 0.125 (≈ 0.148 µM) | 0.125 (≈ 0.148 µM) | 4 (≈ 4.75 µM) | 0.125 (≈ 0.148 µM) | 16 (≈ 19 µM) | < 0.03 | 8 (≈ 9.5 µM) | 0.125 (≈ 0.148 µM) | < 0.03 |  | 43.3 | < 0.03 | 2.25 (≈ 2.67 µM) | 0.03 (≈ 0.0356 µM) | < 0.03 | < 0.03 | 0.5 (≈ 0.594 µM) | 0.125 (≈ 0.148 µM) | 
6 | CC[C@H]1OC(=O)[C@H](C)C(=O)[C@H](C)[C@@H](O[C@@H]2O[C@H](C)C[C@H](N(C)C)[C@H]2O)[C@](C)(OC)C[C@@H](C)C(=O)[C@H](C)[C@H]2N(CCCOC(=O)Nc3ccc(C)cc3)C(=O)O[C@]12C | 0.125 (≈ 0.155 µM) | 0.5 (≈ 0.622 µM) | 32 (≈ 39.8 µM) | 0.5 (≈ 0.622 µM) |  | < 0.03 | 32 (≈ 39.8 µM) | 0.25 (≈ 0.311 µM) | 0.125 (≈ 0.155 µM) | 1 (≈ 1.24 µM) | 20.8 | < 0.03 | 0.25 (≈ 0.311 µM) | 0.125 (≈ 0.155 µM) | 0.125 (≈ 0.155 µM) | 0.125 (≈ 0.155 µM) | 1 (≈ 1.24 µM) | 0.25 (≈ 0.311 µM) | < 0.03

— ChEMBL document CHEMBL5543097, “Synthesis and structure-activity relationships of novel 14-membered 2-fluoro ketolides with structural modification at the C11 position” (Eur J Med Chem, 2024)
